Test results taken from PubChem BioAssay (NCI).
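All cell lines were grown in 96-well plates and treated with compound for 48 hours. TGI: concentration producing complete growth inhibition.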

Tests used:
Assay in all cases: inhibition of tumour cell growth, NCI panel, 48 h
SF-295 CNS = system: SF-295 CNS
ACHN renal = system: ACHN renal
HOP-18 NSCLC = system: HOP-18 NSCLC
LOX IMVI melanoma = system: LOX IMVI melanoma
M19-MEL melanoma = system: M19-MEL melanoma
UACC-62 melanoma = system: UACC-62 melanoma
DMS 273 small cell lung = system: DMS 273 small cell lung
SNB-78 CNS = system: SNB-78 CNS
XF 498 CNS = system: XF 498 CNS
KM12 colon = system: KM12 colon
A498 renal = system: A498 renal
NCI/ADR-RES ovarian = system: NCI/ADR-RES ovarian
BT-549 breast = system: BT-549 breast

Structure (SMILES) | TGI (SF-295 CNS) | TGI (ACHN renal) | TGI (HOP-18 NSCLC) | TGI (LOX IMVI melanoma) | TGI (M19-MEL melanoma) | TGI (UACC-62 melanoma) | TGI (DMS 273 small cell lung) | TGI (SNB-78 CNS) | TGI (XF 498 CNS) | TGI (KM12 colon) | TGI (A498 renal) | TGI (NCI/ADR-RES ovarian) | TGI (BT-549 breast)
O=C(Nc1ccc(Cl)cc1)c1cccc([N+](=O)[O-])c1O | 15.5 µM | > 100 µM | > 100 µM | > 100 µM | 9.07 µM | 17.6 µM | 23.3 µM | > 37.5 µM | 8.31 µM | > 62.4 µM | 7.32 µM |  | 
CSc1nc2c(c(=O)n1C)N=C(c1ccc(Cl)cc1)CC(c1ccccc1)N2 (stereo not drawn) | 53.1 µM | 44.6 µM |  | 54.3 µM |  | 34.7 µM |  |  |  | 31.7 µM | > 100 µM | 74.1 µM | 56.1 µM
CCN(CC)c1ccc(/C=c2\nc(-c3ccccc3)n3c2nc2ccccc23)cc1 | 45.8 µM | 88.3 µM |  | 26.4 µM |  | 30.9 µM |  |  |  | > 100 µM | > 100 µM | 26.6 µM | 72.2 µM
CCN(CC)c1ccc2c(c1)Oc1ccc(N(C(C)=O)c3ccccc3)cc1C21OC(=O)c2ccccc21 (stereo not drawn) | > 100 µM | > 100 µM |  | > 100 µM |  | > 100 µM |  |  |  | > 100 µM | > 100 µM | > 100 µM | > 100 µM
CC1(CCc2ccccc2)CC1(Br)Br (stereo not drawn) | > 100 µM | 61 µM |  | 37.4 µM |  | > 100 µM |  |  |  | > 100 µM | > 100 µM | > 100 µM | > 100 µM
Cc1c(C)c2c(c(N)c1C#N)C(=O)N(OS(=O)(=O)c1ccccc1)C2=O | > 100 µM | 33.1 µM |  | 55.1 µM |  | 61.4 µM |  |  |  | > 100 µM | > 100 µM | 58.9 µM | 39.7 µM
NNC(=O)Cc1cccnc1 | > 100 µM | > 100 µM |  | > 100 µM |  | > 100 µM |  |  |  | > 100 µM | > 100 µM | > 100 µM | > 100 µM
O=c1[nH]nc(Cc2ccccc2)n1/N=C/c1ccc([N+](=O)[O-])o1 | 36.2 µM | 27.4 µM |  | > 100 µM |  | 4.56 µM |  |  |  | 6.49 µM | 23.1 µM | 13.1 µM | 1.7 µM
CC(/C=N/N(C)C1=NCCCCN1)=N/N(C)C1=NCCCCN1 | > 100 µM | > 100 µM |  | > 100 µM |  | > 100 µM |  |  |  | > 100 µM | > 100 µM | > 100 µM | > 100 µM
CN(C)c1ccc(/C=N/n2c(-c3ccccc3)nc3ccccc3c2=O)cc1 | > 100 µM | > 100 µM |  | > 100 µM |  | > 100 µM |  |  |  | > 100 µM | > 100 µM | > 100 µM | > 100 µM
c1ccc2c(c1)nc1n2CCNC1 | > 100 µM | > 100 µM |  | > 100 µM |  | > 100 µM |  |  |  | > 100 µM | > 100 µM | > 100 µM | > 100 µM
O=C(O)CS(=O)c1ccc2c3c(cccc13)C(=O)c1ccccc1-2 (stereo not drawn) | > 100 µM | > 100 µM |  | > 100 µM |  | > 100 µM |  |  |  | > 100 µM | > 100 µM | > 100 µM | > 100 µM
COc1ccc(C2c3cc4c(cc3OC(NNC(N)=O)C2C)OCO4)cc1 (stereo not drawn) | 21.1 µM | > 100 µM |  | > 100 µM |  | > 70.2 µM |  |  |  | > 100 µM | 8.59 µM | > 100 µM | > 95.7 µM
Cc1ccc(C2(N3CCCC3)OC(C)(C)c3cccc4cccc2c34)cc1 (stereo not drawn) | 28 µM | 29.9 µM |  | 29.3 µM |  | 27.5 µM |  |  |  | > 100 µM | 30 µM | 30.1 µM | 31.3 µM
O=C(O)C(F)(F)C(F)(F)C(F)(F)C(F)(F)C(=O)O | > 100 µM | > 100 µM |  | > 100 µM |  | > 100 µM |  |  |  | > 100 µM | > 100 µM | > 100 µM | > 100 µM
NNC(=Nc1ccccc1)SCc1ccccc1 | > 100 µM | > 100 µM |  | > 100 µM |  | > 100 µM |  |  |  | > 100 µM | > 100 µM | > 100 µM | > 100 µM
CN1[C@@H]2CCCC[C@H]2N(C)P1(=O)C(O)/C=C/c1ccccc1 (stereo partly drawn) | > 100 µM | > 100 µM |  | > 100 µM |  | > 100 µM |  |  |  | > 100 µM | > 100 µM | > 100 µM | > 100 µM
CCOC(=O)CN=C1Nc2ccccc2C(=O)N2CSCC12 (stereo not drawn) | > 100 µM | > 100 µM |  | > 100 µM |  | > 100 µM |  |  |  | > 100 µM | > 100 µM | > 100 µM | > 100 µM
COc1ccc2c(c1)C1Oc3ccccc3CC1(O)CO2 (stereo not drawn) | > 100 µM | > 100 µM |  | > 100 µM |  | > 100 µM |  |  |  | > 100 µM | > 100 µM | > 100 µM | > 100 µM
CC(=O)OC(CC(C)C)P1(=O)N(CC(C)(C)C)[C@@H]2CCCC[C@H]2N1CC(C)(C)C (stereo partly drawn) | 20.4 µM | 19.3 µM |  | 25 µM |  | 23.3 µM |  |  |  | 24.1 µM | 19.3 µM | 22.6 µM | 29.2 µM
CCOC(=O)c1[nH]cnc1/N=N/N(C)N | > 100 µM | > 100 µM |  | > 100 µM |  | > 100 µM |  |  |  | 14 µM | > 100 µM | > 100 µM | > 100 µM
CC(=O)[C@H]1CC[C@H]2[C@@H]3CCC4=CC(=O)CC[C@]4(C)[C@H]3CC[C@]12C | 76 µM | 75.2 µM |  | 33.3 µM |  | 30.1 µM |  |  |  | 31.5 µM | 67.1 µM | 31.3 µM | 32.1 µM
O=C(O)CCC(C(=O)O)N1C(=O)c2ccccc2C1=O (stereo not drawn) | > 100 µM | > 100 µM |  | > 100 µM |  | > 100 µM |  |  |  | > 100 µM | > 100 µM | > 100 µM | > 100 µM
O=c1c2ncn(C3CCCCO3)c2n(-c2ccccc2)c(=S)n1-c1ccccc1 (stereo not drawn) | 51.7 µM | > 100 µM |  | > 100 µM |  | 56.5 µM |  |  |  | > 100 µM | 89.6 µM | > 82.6 µM | 72.1 µM
CC1(C)CC(=O)C2=C(C1)NC(SCC(=O)O)=C(C#N)C2c1ccc(Br)cc1 (stereo not drawn) | > 100 µM | > 100 µM |  | > 100 µM |  | > 100 µM |  |  |  | > 100 µM | > 100 µM | > 100 µM | > 100 µM
